These results are taken from US20090304692A1, “TRIAZINE COMPOUNDS AS PI3 KINASE AND MTOR INHIBITORS” (Wyeth, priority 2008, published 2009).

pIC50: −log10 of the molar value. Where “and” joins values, the source holds several entries; their conditions need not be identical. Equal values may be shown once. Read-outs that look alike come from different tables or passages of the source.

The subject of assay [1] is human prostate LNCap tumor cell line. Nature of the assay: In vitro cell culture growth assay (MTS), LNCap. The note with it: Homo sapiens, LNCaP, 72 h, read-out: IC50 LNCap.
The test system of assay [2] is human prostate PC3-mm2 tumor cell line. Nature of the assay: In vitro cell culture growth assay (MTS), PC3-mm2. In kind it is cell-based. The note with it: Homo sapiens, PC3MM2, 72 h, MTS cell growth assay, three days after drug treatment, read-out: IC50 PC3-mm2. (Formazan colour is commonly taken as a measure of viable cells.)
Another assay deals with Human mTOR (FLAG-TOR) (Homo sapiens, UniProt P42345). The experiment in a line: mTOR kinase assay (DELFIA format, purified enzyme). It counts as biochemical. The note with it: read-out: IC50 mTOR.
Sequence of Human mTOR (FLAG-TOR) (P42345 1360-2549 limits assumed): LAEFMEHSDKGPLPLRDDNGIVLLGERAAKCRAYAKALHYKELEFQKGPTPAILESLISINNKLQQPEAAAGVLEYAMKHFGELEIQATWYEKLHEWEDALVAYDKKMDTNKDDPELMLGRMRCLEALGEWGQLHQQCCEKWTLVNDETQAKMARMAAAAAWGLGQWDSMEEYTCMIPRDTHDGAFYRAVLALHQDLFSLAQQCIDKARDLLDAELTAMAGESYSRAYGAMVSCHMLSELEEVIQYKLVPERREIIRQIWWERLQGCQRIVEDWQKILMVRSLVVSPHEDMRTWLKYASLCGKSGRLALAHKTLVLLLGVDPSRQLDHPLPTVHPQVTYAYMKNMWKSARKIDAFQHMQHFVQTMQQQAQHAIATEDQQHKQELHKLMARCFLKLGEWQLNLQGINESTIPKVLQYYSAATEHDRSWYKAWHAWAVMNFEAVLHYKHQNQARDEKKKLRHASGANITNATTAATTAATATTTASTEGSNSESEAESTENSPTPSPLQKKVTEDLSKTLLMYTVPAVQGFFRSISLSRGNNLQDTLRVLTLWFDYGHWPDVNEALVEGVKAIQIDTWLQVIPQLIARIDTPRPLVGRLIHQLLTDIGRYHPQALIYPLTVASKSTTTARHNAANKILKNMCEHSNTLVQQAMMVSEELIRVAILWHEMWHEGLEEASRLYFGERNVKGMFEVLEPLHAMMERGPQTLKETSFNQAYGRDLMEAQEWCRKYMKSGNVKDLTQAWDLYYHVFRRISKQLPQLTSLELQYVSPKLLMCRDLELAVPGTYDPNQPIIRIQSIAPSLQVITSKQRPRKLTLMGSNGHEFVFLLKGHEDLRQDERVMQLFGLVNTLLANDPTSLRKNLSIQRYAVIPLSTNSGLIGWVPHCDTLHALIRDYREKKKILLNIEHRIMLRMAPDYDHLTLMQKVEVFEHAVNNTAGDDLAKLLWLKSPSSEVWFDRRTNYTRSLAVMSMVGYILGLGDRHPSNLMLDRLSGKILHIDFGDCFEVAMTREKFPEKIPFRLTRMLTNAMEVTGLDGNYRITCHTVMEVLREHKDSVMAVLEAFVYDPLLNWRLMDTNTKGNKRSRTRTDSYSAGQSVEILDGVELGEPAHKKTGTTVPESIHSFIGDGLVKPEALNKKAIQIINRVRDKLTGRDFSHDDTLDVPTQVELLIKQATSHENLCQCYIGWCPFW
In assay [3] the test system is human breast MDA-MB-361 tumor cell line. Nature of the assay: In vitro cell culture growth assay (MTS), MDA-MB-361. It counts as cell-based. The note with it: Homo sapiens, MDA-MB-361, 72 h; MTS cell growth assay, three days after drug treatment; read-out: IC50 MDA-MB-361.
A further assay has as its target PI3K-α (Homo sapiens, UniProt P42336). Nature of the assay: PI3K-alpha fluorescence polarization assay. To be noted: read-out: IC50 PI3Kα.
In a further assay the target is PI3K-γ (Homo sapiens, UniProt P48736). The experiment in a line: PI3K-gamma fluorescence polarization assay. The note with it: read-out: IC50 PI3Kγ. A general note: Polarisation of emitted light reports the rotation of a fluorescent probe.
Sequence of PI3K-γ (P48736 whole entry, species assumed): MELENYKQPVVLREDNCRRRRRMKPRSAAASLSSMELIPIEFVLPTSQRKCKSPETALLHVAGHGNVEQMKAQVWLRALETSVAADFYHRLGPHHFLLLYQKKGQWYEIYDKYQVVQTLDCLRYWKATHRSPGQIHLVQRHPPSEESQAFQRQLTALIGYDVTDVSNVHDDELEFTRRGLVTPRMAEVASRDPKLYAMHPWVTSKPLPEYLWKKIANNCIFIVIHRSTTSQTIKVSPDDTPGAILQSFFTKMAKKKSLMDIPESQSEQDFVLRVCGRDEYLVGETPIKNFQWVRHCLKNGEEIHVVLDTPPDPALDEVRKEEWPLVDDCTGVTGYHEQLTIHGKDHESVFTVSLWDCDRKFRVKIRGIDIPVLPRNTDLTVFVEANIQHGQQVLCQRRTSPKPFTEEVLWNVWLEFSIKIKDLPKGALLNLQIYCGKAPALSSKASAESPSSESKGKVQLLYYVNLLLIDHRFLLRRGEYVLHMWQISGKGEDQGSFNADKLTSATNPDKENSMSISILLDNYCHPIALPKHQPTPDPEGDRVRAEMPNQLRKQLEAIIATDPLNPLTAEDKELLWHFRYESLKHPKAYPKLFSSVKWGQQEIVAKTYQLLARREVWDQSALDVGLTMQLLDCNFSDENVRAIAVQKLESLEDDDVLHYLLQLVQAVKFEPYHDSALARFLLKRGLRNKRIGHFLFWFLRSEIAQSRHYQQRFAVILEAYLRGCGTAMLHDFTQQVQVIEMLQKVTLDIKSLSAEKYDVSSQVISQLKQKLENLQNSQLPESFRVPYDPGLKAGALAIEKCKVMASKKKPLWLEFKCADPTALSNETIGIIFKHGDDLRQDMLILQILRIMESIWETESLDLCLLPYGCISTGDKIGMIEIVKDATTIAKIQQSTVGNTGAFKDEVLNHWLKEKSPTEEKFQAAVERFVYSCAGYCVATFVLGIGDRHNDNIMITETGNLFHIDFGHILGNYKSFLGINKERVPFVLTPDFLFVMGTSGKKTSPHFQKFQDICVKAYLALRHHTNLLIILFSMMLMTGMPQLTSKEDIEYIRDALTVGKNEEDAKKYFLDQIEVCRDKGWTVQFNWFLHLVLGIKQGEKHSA
The next assay has as its target human SMG-1 (hSMG-1) (Homo sapiens, UniProt Q96Q15). Nature of the assay: hSMG-1 kinase assay (DELFIA). It counts as biochemical.

Sequence of PI3K-α (P42336 whole entry, species assumed): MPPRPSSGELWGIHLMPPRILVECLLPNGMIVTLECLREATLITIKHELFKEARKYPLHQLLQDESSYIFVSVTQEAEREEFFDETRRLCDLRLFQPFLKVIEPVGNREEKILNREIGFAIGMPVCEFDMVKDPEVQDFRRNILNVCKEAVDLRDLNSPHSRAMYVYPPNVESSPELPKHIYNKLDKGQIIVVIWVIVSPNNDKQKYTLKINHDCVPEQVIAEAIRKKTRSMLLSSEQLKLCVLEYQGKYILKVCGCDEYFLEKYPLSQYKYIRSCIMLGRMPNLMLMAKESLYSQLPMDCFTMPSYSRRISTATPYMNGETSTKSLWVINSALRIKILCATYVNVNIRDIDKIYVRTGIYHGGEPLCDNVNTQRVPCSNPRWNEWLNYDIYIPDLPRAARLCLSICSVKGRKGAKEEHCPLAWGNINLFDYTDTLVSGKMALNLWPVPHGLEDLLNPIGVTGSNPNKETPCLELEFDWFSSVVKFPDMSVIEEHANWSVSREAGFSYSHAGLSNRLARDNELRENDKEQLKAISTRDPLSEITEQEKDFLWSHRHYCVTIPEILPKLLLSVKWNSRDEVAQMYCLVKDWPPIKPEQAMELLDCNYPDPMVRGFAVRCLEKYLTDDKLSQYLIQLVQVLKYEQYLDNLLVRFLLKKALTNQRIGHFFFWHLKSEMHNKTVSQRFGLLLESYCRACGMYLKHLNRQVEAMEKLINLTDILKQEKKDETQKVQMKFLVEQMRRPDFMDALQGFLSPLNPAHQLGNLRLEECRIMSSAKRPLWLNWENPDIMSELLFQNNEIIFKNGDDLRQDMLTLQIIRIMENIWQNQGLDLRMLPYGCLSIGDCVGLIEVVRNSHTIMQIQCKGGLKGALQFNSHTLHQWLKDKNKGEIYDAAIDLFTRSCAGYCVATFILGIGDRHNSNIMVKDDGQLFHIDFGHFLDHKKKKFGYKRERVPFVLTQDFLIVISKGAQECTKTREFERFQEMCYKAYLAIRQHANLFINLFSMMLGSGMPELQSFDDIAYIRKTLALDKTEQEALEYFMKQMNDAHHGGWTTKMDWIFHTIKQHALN
Sequence of PI3K-α (P27986 whole entry partner, species assumed): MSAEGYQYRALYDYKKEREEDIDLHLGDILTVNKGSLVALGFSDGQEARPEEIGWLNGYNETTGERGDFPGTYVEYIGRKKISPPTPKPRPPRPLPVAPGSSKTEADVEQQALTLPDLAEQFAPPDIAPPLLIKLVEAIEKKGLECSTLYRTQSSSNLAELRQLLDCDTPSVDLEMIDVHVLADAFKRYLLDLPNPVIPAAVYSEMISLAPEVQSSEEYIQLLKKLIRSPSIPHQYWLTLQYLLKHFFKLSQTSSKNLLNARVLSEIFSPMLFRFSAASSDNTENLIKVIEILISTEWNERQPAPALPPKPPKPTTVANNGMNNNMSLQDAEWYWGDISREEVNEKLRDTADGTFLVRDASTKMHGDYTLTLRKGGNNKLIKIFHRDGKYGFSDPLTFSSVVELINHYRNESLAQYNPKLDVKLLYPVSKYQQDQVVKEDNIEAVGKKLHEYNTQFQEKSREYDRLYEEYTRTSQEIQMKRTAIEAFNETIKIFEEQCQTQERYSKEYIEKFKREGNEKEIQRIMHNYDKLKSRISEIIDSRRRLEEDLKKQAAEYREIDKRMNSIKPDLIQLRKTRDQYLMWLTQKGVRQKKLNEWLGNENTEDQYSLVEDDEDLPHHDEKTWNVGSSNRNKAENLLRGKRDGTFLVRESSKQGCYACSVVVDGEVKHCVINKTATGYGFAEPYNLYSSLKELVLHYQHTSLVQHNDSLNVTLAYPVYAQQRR

Usually pIC50 stands for −log10 of the IC50, conventionally taken in molar units. Consider `O=C(Nc1ccncc1)Nc1ccc(-c2nc(C3CCOCC3)nc(N3CCOCC3)n2)cc1` [Example 101, 1-{4-[4-Morpholin-4-yl-6-(tetrahydro-pyran-4-yl)-[1,3,5]triazin-2-yl]-phenyl}-3-pyridin-4-yl-urea], for which the pIC50 in assay [1] is 8.52; in assay [2], 7.43; on Human mTOR (FLAG-TOR), 9.36; in assay [3] it was 7.49; on PI3K-α, 8.22; on PI3K-γ, 7.48.

Consider `O=C(Nc1ccncc1)Nc1ccc(-c2nc(N3CCOCC3)nc(N3C(CO)CCC3CO)n2)cc1` (stereo not drawn) [Example 268, 1-(4-{4-[2,5-bis(hydroxymethyl)pyrrolidin-1-yl]-6-morpholin-4-yl-1,3,5-triazin-2-yl}phenyl)-3-pyridin-4-ylurea], for which the pIC50 was 7.42 in assay [1]; 6.97 in assay [2] (PC3-mm2 cells); 6.97 in assay [2]; 9.41 and 9.42 on Human mTOR (FLAG-TOR); 7.23 in assay [3]; 7.92 at PI3K-α. Further, the pIC50 is 7.98 at PI3K-α (listed as 728), 7.39 at PI3K-γ and 7.33 on PI3K-γ (listed as 728).

Turning to `CNC(=O)Nc1ccc(-c2nc(-c3ccc(NC(=O)Nc4cccnc4)cc3)nc(N3C(C)COCC3C)n2)cc1` (stereo not drawn) [Example 463, 1-{4-[4-(3,5-dimethylmorpholin-4-yl)-6-{4-[(methylcarbamoyl)amino]phenyl}-1,3,5-triazin-2-yl]phenyl}-3-pyridin-3-ylurea], the pIC50 was 7.77 at Human mTOR (FLAG-TOR) and 6.29 at human SMG-1 (hSMG-1).

For `CNC(=O)Nc1ccc(-c2nc(-c3ccc(NC(=O)Nc4ccc(C(N)=O)cc4)cc3)nc(N3CC4CCC(C3)O4)n2)cc1` [Example 464, 4-[({4-[4-{4-[(methylcarbamoyl)amino]phenyl}-6-(8-oxa-3-azabicyclo[3.2.1]oct-3-yl)-1,3,5-triazin-2-yl]phenyl}carbamoyl)amino]benzamide], the pIC50 was 9.00 at Human mTOR (FLAG-TOR) and 8.52 against human SMG-1 (hSMG-1).

Consider `CNC(=O)Nc1ccc(-c2nc(-c3ccc(NC(=O)Nc4cccc(C(N)=O)c4)cc3)nc(N3CC4CCC(C3)O4)n2)cc1` [Example 465, 3-[({4-[4-{4-[(methylcarbamoyl)amino]phenyl}-6-(8-oxa-3-azabicyclo[3.2.1]oct-3-yl)-1,3,5-triazin-2-yl]phenyl}carbamoyl)amino]benzamide], for which the negative logarithm of the IC50 (pIC50) is 9.00 at Human mTOR (FLAG-TOR) and 8.30 against human SMG-1 (hSMG-1).

Regarding `CN1CCN(CC(=O)Nc2ccc(NC(=O)Nc3ccc(-c4nc(N5CC6CCC(C5)O6)nc(N5CC6CCC(C5)O6)n4)cc3)cc2)CC1` [Example 509, N-[4-({[4-(4,6-di-8-oxa-3-azabicyclo[3.2.1]oct-3-yl-1,3,5-triazin-2-yl)phenyl]carbamoyl}amino)phenyl]-2-(4-methylpiperazin-1-yl)acetamide], the pIC50 in assay [1] was greater than 9.10; at Human mTOR (FLAG-TOR) it was 9.35; on PI3K-α, 7.94; at PI3K-γ, 6.18.

With `O=C(Nc1ccncc1)Nc1ccc(-c2nc(N3CC4CCC(C3)O4)nc(N3[C@H](CO)CC[C@@H]3CO)n2)cc1` [Example 667, 1-(4-{4-[(2R,5S)-2,5-bis(hydroxymethyl)pyrrolidin-1-yl]-6-(8-oxa-3-azabicyclo[3.2.1]oct-3-yl)-1,3,5-triazin-2-yl}phenyl)-3-pyridin-4-ylurea], the negative logarithm of the IC50 (pIC50) in assay [1] was 7.22; at Human mTOR (FLAG-TOR), 9.39; on PI3K-α, 6.99; on PI3K-γ, 5.97.

With `CN1CCN(c2ccc(NC(=O)Nc3ccc(-c4nc(N5CC6CCC(C5)O6)nc(N5[C@H](CO)CC[C@@H]5CO)n4)cc3)cc2)CC1` [Example 668, 1-(4-{4-[(2R,5S)-2,5-bis(hydroxymethyl)pyrrolidin-1-yl]-6-(8-oxa-3-azabicyclo[3.2.1]oct-3-yl)-1,3,5-triazin-2-yl}phenyl)-3-[4-(4-methylpiperazin-1-yl)phenyl]urea], the negative logarithm of the IC50 (pIC50) was 9.10 in assay [1], 9.25 on Human mTOR (FLAG-TOR), 6.91 at PI3K-α and 6.20 on PI3K-γ.
